“Also recorded” adds a separate entry of the source. No end group written: not given here.
Experiments:
[1] = tested on: microbiota in diet-induced obese mice; experiment: interventional treatment of dysbiosis with defensins in diet-induced obese mice (Example 8); type: in vivo
Text: Mice and diets. The experiment elucidates the effect of hBD2 and HD5 on the microbiota in diet-induced obese mice. A run-in period of 13 weeks where mice were fed a very HFD (60% energy from fat) preceded the intervention. Only mice meeting the criteria of a minimum of 12 gram weight gain (approximately 50% of initial bodyweight) during the run-in period were included in the final analyses. […] They were exposed to all experimental tests, but excluded from the analyses.
Treatment regimen. Before the intervention all mice were MR scanned. Cages of mice were allocated to experimental groups based on their fat mass. All subsequent measures were paired with data from the same mouse before the intervention. A LFD (low fat diet) reference group was running in parallel. As controls for the intervention 2 additional groups were included: 1 very HFD and 1 LFD. Experimental mice stayed on the very HFD during the intervention (FIG. 3). The mice were on the experimental diet for 10 weeks. They were co-housed throughout the experiment, 4 mice per cage, 3 cages per group. All tests ran over 3 days, 1 cage per group per day.
Tests. Microbial analyses were carried out to study the microbiota of the intestine.
Longitudinal 16S characterization was conducted on 4 paired samples from 60 mice, 240 samples in total. Each mouse was sampled prior to diet change, 1 week post diet change, 4 weeks post diet change and at termination, thus ensuring a thorough characterization of the faecal microbiota as a result of defensin treatment.

[2] = tested on: acute graft versus host disease following stem cell transplantation; experiment: prophylactic oral hBD-2 in murine model of acute graft versus host disease following stem cell transplantation (Example 13); type: in vivo, BALB/c mice; conditions: for IL-1β from myeloid cells: CD11c+ dendritic cells and CD11b+ Ly6FG− cells; for infiltration with CD45+ leucocytes (FACS analysis): lamina propria of colon (FIG. 50: colon and small intestine); for intestinal T cell and myeloid cell infiltration: lamina propria of the colon (FIG. 51: colon and small intestine)
Method: To determine and assess the efficacy of prophylactic treatment with oral hBD-2 in a murine model of acute graft versus host disease following stem cell transplantation.
Treatment regime: 12 female BALB/c mice were irradiated with 4.5 Gy (2×498 sec) at intervals of at least 4 hours on day 0. Bone marrow was harvested: hind limbs harvested from 2 female WT C57BL/6 mice aseptically. Skeletal muscle was removed and epiphysis cut away. Lumen of bone flushed with PBS and cells pelleted and taken up. Harvest of T-cells: spleens from 2 female WT C57BL/6 mice were meshed through a 100 μM cell strainer into a PBS filled dish. Cells were taken up in PBS and transferred into a 50 mL falcon tube and spun down. Cells were taken up in 1 mL PBS and 20 μL of CD4 microbead+20 μL CD8 microbeads per spleen added for incubation for 20 min at 4 degrees C. Cells were washed with PBS and applied to MACS separation in order to positively select CD4+ and CD8+ cells. Positively selected T-cells were counted and taken up. Transplantation: directly after the second irradiation, all WT BALB/c recipient mice were injected with 5×1.000.000 BM cells (50 μL) i.v. into the retroorbital venous plexus under isoflurane anesthesia. 15 BALB/c mice were treated with 1.2 mg of hBD2/kg BW/day in 100 μL PBS per day vial oral gavage from day 0-10.
15 BALB/c mice received vehicle 100 μL PBS per day via oral gavage from day 0-10.
The mice were weighed daily for the initial 7 days and survival was monitored for 100 days.

[3] = tested on: acute graft versus host disease following stem cell transplantation; experiment: prophylactic oral HD5 or hBD-2 in murine model of acute graft versus host disease (Example 15); type: in vivo, BALB/c mice
Method: To determine and assess the efficacy of prophylactic treatment with oral HD5 in a murine model of acute graft versus host disease following stem cell transplantation.
Treatment regime: 22 female BALB/c mice were irradiated with 4.5 Gy (2×498 sec) at intervals of at least 4 hours on day 0. Bone marrow was harvested: hind limbs harvested from 2 female WT C57BL/6 mice aseptically. Skeletal muscle was removed and epiphysis cut away. Lumen of bone flushed with PBS and cells pelleted and taken up. Harvest of T-cells: spleens from 2 female WT C57BL/6 mice were meshed through a […] cell strainer into a PBS filled dish. Cells were taken up in PBS and transferred into a 50 mL falcon tube and spun down. Cells were taken up in 1 mL PBS and 20 μL of CD4 microbead+20 μL CD8 microbeads per spleen added for incubation for 20 min at 4 degrees C. Cells were washed with PBS and applied to MACS separation in order to positively select CD4+ and CD8+ cells. Positively selected T-cells were counted and taken up. Transplantation: directly after the second irradiation, all WT BALB/c recipient mice were injected with 5×1.000.000 BM cells (50 μL) i.v. into the retroorbital venous plexus under isoflurane anesthesia. 22 BALB/c mice were treated with 1.2 mg of HD5/kg BW/day; 1.2 mg of hBD-2/kg BW/day or 100 μL of PBS per day vial oral gavage from day 0-10.
Survival was monitored for 60 days.

[4] = tested on: house dust mite model of allergic asthma; experiment: therapeutic intranasal versus oral hBD2 in murine house dust mite model of allergic asthma (Example 10); type: in vivo, BALB/c mice; conditions: hBD2, both dosing routes
[5] = oral hBD2 1.2 mg/kg/day day 0-10, 15 mice
[6] = oral hBD-2 for 10 days versus PBS

human beta defensin 2 (GIGDPVTCLKSGAICHPVFCPRRYKQIGTCGLPGTKCCKKP; not fully specified (bridges); ends and bridges not checked; listed as Homo sapiens) [hBD2]
weight gain ([1]; HFD plus hBD2, first 4 weeks post dietary intervention, versus standard HFD): tended to gain less weight | weight gain ([1]; HFD plus hBD2, week 4 to end of study period): gained similar weight as the standard HFD group | abundance of Alloprevotella ([1]; colon): no influence on Alloprevotella abundance | relative abundance of Bifidobacteriaceae ([1]; colon): dramatically and statistically significant increased | relative abundance of Bifidobacteriaceae ([1]; small intestine): dramatically and statistically significant increased | Th1 cytokine production (TNF-α and IFN-γ in CD4 and CD8 T cells) ([2]; FACS analysis of the spleen): reduced Th 1 cytokine production; also recorded: reduced Th1 cytokine production | neutrophils ([2]; FACS analysis of the spleen): Reduced proportion of neutrophils; also recorded: reduced number of neutrophils | IL-1β from myeloid cells ([2]; FACS analysis of the spleen): decrease the production of IL-1β | IL-1β from myeloid cells ([2]; FACS analysis of the spleen, listed as hBD-2): reduction of IL-1β from myeloid cells; also recorded: Reduced IL-1β production | weight loss ([2]; first 7 days following bone marrow transplantation): lost statistically significantly less weight | survival (Kaplan-Meyer plot) ([2]; hBD2 1.2 mg/kg/day day 0 to day 10 versus vehicle, n=15): dramatically increased survival | microarray analysis of colon samples ([2]; hBD-2 treated group versus PBS): decreased inflammation, leucocyte and myeloid cell migration and tissue remodelling | infiltration with CD45+ leucocytes (FACS analysis) [2]: reduced the infiltration | infiltration with CD45+ leucocytes (FACS analysis) ([2]; listed as hBD-2): Reduced CD45+ leucocyte cell migration | intestinal T cell and myeloid cell infiltration [2]: reduced | intestinal T cell and myeloid cell infiltration ([2]; listed as hBD-2): Reduction of intestinal T cell and myeloid cell infiltration | mice still alive by day 100 [2, 5]: 8 mice | share of treated mice that had died by day 35 [2, 5]: less than 30% | treated mice that had died by day 35 ([2]; oral hBD2 1.2 mg/kg/day day 0-10, 15 mice, all 15 vehicle mice had died by day 35): 4 | histology score of the colon [2, 6]: highly statistically lower; also recorded: statistically significant reduction of histology score | histology score of the liver [2, 6]: highly statistically lower; also recorded: statistically significant reduction of histology score | histology score of the small intestine [2, 6]: highly statistically lower; also recorded: statistically significant reduction of histology score | TNF-α concentration ([2]; serum (FIG. 52a)): reduction | IL-6 concentration ([2]; serum (FIG. 52b)): reduction | IL-10 concentration ([2]; serum (FIG. 52c)): increased concentration of IL-10 | mortality ([3]; FIG. 58, oral treatment for 10 days from day of stem cell transplantation): significant reduction of mortality | treated animals that had died by day 60 ([3]; oral 1.2 mg/kg/day day 0-10, six out of eight PBS mice died): none | IL-4 level in lung tissue homogenates [4]: significant effects | IL-5 level in lung tissue homogenates [4]: significant effects

Source: patent US20200291082A1, “PREVENTION AND TREATMENT OF GRAFT-VERSUS-HOST-DISEASE WITH DEFENSINS” (priority 2017, published 2020)
